Data as given in patent publication US20080220103A1, “METHOD FOR TREATING/CONTROLLING/KILLING FUNGI AND BACTERIA ON LIVING ANIMALS” (priority 2005, published 2008).
Like-named read-outs stand apart in the source and are kept apart here.

What was measured:
S. aureus = assay: MIC, CLSI M7-A7, Mueller-Hinton; format: cell-based, Staphylococcus aureus
Method: (§1) Minimum Inhibitory Concentration (MIC): Minimum inhibitory concentrations of synthetic and semisynthetic and natural products against dermatophytes were determined using a modification of the Clinical Laboratory Standards Institute (CLSI, formerly National Committee of Clinical Laboratory Standards, NCCLS) M38A standard method for dermatophytes, while MIC of these agents against Candida species were determined using the CLSI M27-A2 methodology. The method used to determine the MIC against bacteria was based on the CLSI document M7-A7.
(§2) For bacterial species, the medium used to evaluate the antibacterial activity of agents and essential oils was Mueller-Hinton (Oxoid Ltd., Basingstoke, Hampshire, England). Serial dilutions of miconazole, terbinafine, and tolnaftate were prepared in a range of 0.125-64 μg/ml and serial dilutions of tea tree oil were prepared in a range of 0.0078-4 μg/ml, while those for the rest of the essential oils were prepared in a range 0.031-16 μg/ml.

T. mentagrophytes = assay: MIC, modified CLSI M38A broth dilution; format: cell-based, Trichophyton mentagrophytes
Method: as §1
For dermatophytes, serial dilutions of terbinafine, tolnaftate were prepared in a range of 0.004-2 μg/ml, while for miconazole concentrations ranged between 0.015-8 μg/ml. Finally, for essential oils, the concentrations tested were between 0.03-16 μg/ml. The only exception was tea tree oil where dilutions were prepared in a range of 0.0078-4 μg/ml. The MIC was read at 4 days post inoculation and defined as the lowest concentration of an agent to inhibit 80% of fungal growth as compared to the growth control (Table 2).

S. epidermidis = assay: MIC, CLSI M7-A7, Mueller-Hinton; format: cell-based; details: for MIC: read-out: MIC
Method: as §1, §2

E. floccosum = assay: Minimum fungicidal concentration (Canton et al.); format: cell-based, Epidermophyton floccosum; details: for MFC: Epidermophyton floccosum
Method: (§3) Minimum fungicidal concentration (MFC): The minimum fungicidal concentrations of various agents were determined using the technique described by Canton et al. (Antimicrob Agents Chemother. 2004 8:2477-82). In that method, fungal conidia were collected following growth on potato dextrose agar (PDA) plates and were used to inoculate 96-well plates containing different concentrations of agents. Following incubation at 35° C. for 4 days (for dermatophytes) or 24 hours (for yeast), wells showing no visible growth were cultured to determine the MFC (defined as the lowest concentration of a given agent that kills>99.999% of fungal conidia or spores). The MFC value represents the level of the agent at which spores or conidia were killed.

T. rubrum = assay: Minimum fungicidal concentration (Canton et al.); format: cell-based, Trichophyton rubrum; details: for MFC: Trichophyton rubrum
Method: as §3

C. parapsilosis = assay: MIC, CLSI M27-A2; format: cell-based, Candida parapsilosis; details: C. parapsilosis, n = 6
Method: as §1
The remaining essential oils were prepared in a dilution range of 0.03-16 μg/ml. For Candida the MIC was read at 24 hours and defined as the lowest concentration to inhibit 50% of fungal growth as compared to the growth control (Table 4).

[1] = Staphylococcus aureus, S. aureus
[2] = Trichophyton mentagrophytes, T. mentagrophytes, n = 6
[3] = Staphylococcus epidermidis, S. epidermidis, n = 6

CN(C/C=C/C#CC(C)(C)C)Cc1cccc2ccccc12 [Terbinafine, terbinafine]
> 64 mg/L: MIC50 (S. aureus; [1]) | MIC90 (S. aureus; [1]) | MIC (S. aureus; Staphylococcus aureus, S. aureus strain 730, 80% inhibition, 16 h, read-out: MIC) | MIC (S. aureus; Staphylococcus aureus, S. aureus strain 732, read-out: MIC) | MIC (S. epidermidis; Staphylococcus epidermidis, S. epidermidis strain 8472) | MIC (S. epidermidis; Staphylococcus epidermidis, S. epidermidis strain 8473) | MIC (S. epidermidis; Staphylococcus epidermidis, S. epidermidis strain 8474) | MIC (S. epidermidis; Staphylococcus epidermidis, S. epidermidis strain 8475) | MIC (S. epidermidis; Staphylococcus epidermidis, S. epidermidis strain 8476) | MIC (S. epidermidis; Staphylococcus epidermidis, S. epidermidis strain 8477) | MIC50 (S. epidermidis; [3]) | MIC90 (S. epidermidis; [3])
0.125 mg/L: MFC (E. floccosum; E. floccosum strain 1961, read-out: MFC) | MFC (E. floccosum; E. floccosum strain 2165, read-out: MFC) | MFC (E. floccosum; E. floccosum, n = 6, read-out: MFC, row MIC90) | MFC (T. rubrum; T. rubrum strain 1967, read-out: MFC) | MFC (T. rubrum; T. rubrum, n = 6, read-out: MFC, row MIC90)
0.004 to 0.03 mg/L: MIC Range (T. mentagrophytes; T. mentagrophytes, n = 6)
0.06 mg/L: MFC (E. floccosum; E. floccosum strain 1666, read-out: MFC) | MFC (E. floccosum; E. floccosum strain 1925, read-out: MFC) | MFC (E. floccosum; E. floccosum strain 1926, read-out: MFC) | MFC (E. floccosum; E. floccosum, n = 6, read-out: MFC, row MIC50) | MFC (T. rubrum; T. rubrum strain 2098, read-out: MFC) | MFC (T. rubrum; T. rubrum strain 2246, read-out: MFC) | MFC (T. rubrum; T. rubrum strain 8063, read-out: MFC) | MFC (T. rubrum; T. rubrum strain 8071, read-out: MFC) | MFC (T. rubrum; T. rubrum, n = 6, read-out: MFC, row MIC50)
0.25-0.25 μg/mL: MIC Range (C. parapsilosis)
>64 mg/L: MIC (S. aureus; S. aureus strain 733) | MIC (S. aureus; S. aureus strain 734) | MIC (S. aureus; S. aureus strain 8470) | MIC Range (S. aureus; S. aureus, n = 6) | MIC Range (S. epidermidis; S. epidermidis, n = 6)
0.03 to 0.125 mg/L: MFC range (row MIC Range) (E. floccosum; E. floccosum, n = 6) | MFC range (row MIC Range) (T. rubrum; T. rubrum, n = 6)
0.004 mg/L: MIC (T. mentagrophytes; Trichophyton mentagrophytes, T. mentagrophytes strain 1720) | MIC (T. mentagrophytes; Trichophyton mentagrophytes, T. mentagrophytes strain 2126)
0.03 mg/L: MIC (T. mentagrophytes; Trichophyton mentagrophytes, T. mentagrophytes strain 2124) | MIC (T. mentagrophytes; Trichophyton mentagrophytes, T. mentagrophytes strain 2125) | MIC (T. mentagrophytes; Trichophyton mentagrophytes, T. mentagrophytes strain 2127) | MIC (T. mentagrophytes; Trichophyton mentagrophytes, T. mentagrophytes strain 2128) | MIC50 (T. mentagrophytes; [2]) | MIC90 (T. mentagrophytes; [2]) | MFC (E. floccosum; E. floccosum strain 1798, read-out: MFC) | MFC (T. rubrum; T. rubrum strain 8092, read-out: MFC)
